Among the test systems are CCRF-CEM leukemia; SK-MEL-28 melanoma; MCF7 breast; MALME-3M melanoma; RXF 393 renal; NCI-H522 lung; T-47D breast; MDA-MB-435; MDA-MB-231 breast; M14 melanoma.
Common to all, as to experiment: NCI anticancer screen, dose series, 48 h

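Values below derive from 48-hour exposures of cells grown in 96-well plates, with endpoints linearly interpolated between the two concentrations bracketing the appropriate inhibition level. GI50 = concentration required for 50% inhibition of growth. TGI: total growth inhibition.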

On to `COc1cc2c(cc1O)N=C[C@@H]1CCC(O)N1C2=O` (mixture of isomers), for which the TGI in the test on CCRF-CEM leukemia came to 1.66 µM; in the test on SK-MEL-28 melanoma, 2.84 µM; with MCF7 breast, 37 µM; with MALME-3M melanoma, 1.42 µM; in the test with RXF 393 renal, 0.638 µM; in the test on NCI-H522 lung, 0.636 µM.

Take `O=C1NC(=O)C2(CCc3ccc(N(CCCl)CCCl)cc32)N1` (stereo not drawn): the TGI in the test with CCRF-CEM leukemia is over 79.7 µM; in the test with SK-MEL-28 melanoma, 38.1 µM; in the test with MCF7 breast, 61.4 µM; in the test on RXF 393 renal it was 22.5 µM; in the test on NCI-H522 lung it was 20.3 µM.

On to `COc1ccc2oc3c(ccc[n+]3C)c(=O)c2c1`, for which the TGI in the test with T-47D breast, in the test with CCRF-CEM leukemia, in the test with MDA-MB-435, with SK-MEL-28 melanoma, in the test with MDA-MB-231 breast and in the test with MCF7 breast was over 100 µM throughout. For the same compound, the TGI in the test with MALME-3M melanoma, in the test with RXF 393 renal, in the test with NCI-H522 lung and in the test with M14 melanoma was over 100 µM each time.

`COc1ccc(-c2c(C#N)cnc(N)c2-c2nc3cc(C)c(C)cc3[nH]2)cc1`: the GI50 was 15.4 µM with T-47D breast; 25.6 µM in the test with CCRF-CEM leukemia; 1.95 µM with MDA-MB-435; 17.2 µM in the test with SK-MEL-28 melanoma; 8.28 µM in the test with MDA-MB-231 breast; 6.34 µM in the test with MCF7 breast. Also, the GI50 was 6 µM in the test on MALME-3M melanoma, 5.68 µM in the test on RXF 393 renal, 4.74 µM with NCI-H522 lung and 6.61 µM in the test on M14 melanoma. The TGI in the test on T-47D breast was over 100 µM; with CCRF-CEM leukemia it was over 100 µM; in the test on MDA-MB-435, 5.39 µM; in the test with SK-MEL-28 melanoma, over 100 µM; in the test with MDA-MB-231 breast it was over 100 µM; in the test on MCF7 breast, over 100 µM. Besides, the TGI in the test on MALME-3M melanoma was 48.3 µM; in the test on RXF 393 renal, 20.4 µM; in the test on NCI-H522 lung it was 54.7 µM; in the test on M14 melanoma it was over 100 µM.

With `CCc1ncc(C(C)(O)c2ccccc2)n1Cc1ccccc1` (stereo not drawn), the TGI in the test with T-47D breast is over 100 µM; in the test with CCRF-CEM leukemia it was over 100 µM; in the test with MDA-MB-435, 48.1 µM; in the test on SK-MEL-28 melanoma, over 100 µM; with MDA-MB-231 breast, 96.3 µM; with MCF7 breast, over 100 µM. The TGI with MALME-3M melanoma is over 100 µM; in the test with RXF 393 renal, over 100 µM; with NCI-H522 lung it was over 100 µM; in the test on M14 melanoma, 13 µM.

Turning to `C/C=C1/C(=O)O[C@]23C=C[C@@H]4C(C(=O)OC)=CO[C@H](O[C@@H]12)[C@@H]43`, the TGI in the test on CCRF-CEM leukemia worked out at 3.56 µM; in the test with SK-MEL-28 melanoma it was 7.63 µM; with MCF7 breast, 3.76 µM; in the test on MALME-3M melanoma it was 5.61 µM; with RXF 393 renal it was 1.29 µM; in the test with NCI-H522 lung, 2.19 µM.

Take `CC(=O)O[C@@H]1CN(S(=O)(=O)c2ccc(C)cc2)C[C@@H]1C1CCCCC1`: the TGI was over 100 µM with T-47D breast; over 100 µM in the test with CCRF-CEM leukemia; 44.6 µM with MDA-MB-435; 34.3 µM with SK-MEL-28 melanoma; 42.1 µM in the test on MCF7 breast; 29.3 µM in the test on M14 melanoma.

As for `COc1ccc(/C=C/C(=O)/C=C(/C=C/c2ccc(OC)c(OC)c2OC)OB(F)F)c(OC)c1OC`, the GI50 with T-47D breast is 3.62 µM; with CCRF-CEM leukemia, 0.366 µM; in the test on MDA-MB-435, 2.15 µM; in the test with MDA-MB-231 breast, 3.1 µM; in the test on MCF7 breast it was 0.502 µM; with MALME-3M melanoma it was 3.02 µM. The GI50 in the test on RXF 393 renal was 1.35 µM; with NCI-H522 lung, 1.35 µM; with M14 melanoma it was 2.74 µM. In addition, the TGI was over 100 µM in the test on T-47D breast; 2.08 µM with CCRF-CEM leukemia; over 100 µM with MDA-MB-435; over 100 µM in the test with MDA-MB-231 breast; over 100 µM in the test on MCF7 breast; 62.4 µM with MALME-3M melanoma. Further, the TGI in the test on RXF 393 renal was 2.92 µM; in the test with NCI-H522 lung it was 4.62 µM; with M14 melanoma it was over 100 µM.

With `CC(CNc1nc(Nc2ccc(Cl)c(Cl)c2)nc(C(Cl)(Cl)Cl)n1)N(C)C` (stereo not drawn), the GI50 in the test on T-47D breast was 1.91 µM; in the test on SK-MEL-28 melanoma, 1.83 µM; in the test with MDA-MB-231 breast, 0.307 µM; in the test with MCF7 breast it was 1.7 µM; in the test on MALME-3M melanoma it was 1.79 µM; in the test with RXF 393 renal, 1.52 µM. For the same compound, the TGI in the test on T-47D breast worked out at 4.44 µM; in the test with SK-MEL-28 melanoma it was 3.29 µM; in the test on MDA-MB-231 breast, 1.42 µM; in the test with MCF7 breast, 3.16 µM; in the test on MALME-3M melanoma, 3.79 µM; with RXF 393 renal, 2.88 µM.

With `Nc1ccc2c(c1)S(=O)(=O)c1cc(N)ccc1-2`, the TGI in the test on T-47D breast, in the test with MDA-MB-435, in the test on MDA-MB-231 breast, in the test with MCF7 breast, in the test with RXF 393 renal and in the test on NCI-H522 lung was over 100 µM throughout. The TGI in the test with M14 melanoma was over 100 µM.

Take `O=c1ccc2nc3ccc(O)cc3oc-2c1`: the TGI in the test on T-47D breast is over 100 µM; in the test on CCRF-CEM leukemia it was over 100 µM; with MDA-MB-435, 3.23 µM; with MDA-MB-231 breast, over 100 µM; in the test on MCF7 breast, over 52.7 µM; in the test with MALME-3M melanoma, 8.76 µM. In addition, the TGI with RXF 393 renal was over 100 µM; with NCI-H522 lung, over 73.5 µM; in the test on M14 melanoma, 19.5 µM.

With `CC(=O)Nc1nc(C)c(-c2cc3c(c(S(C)(=O)=O)c2)C(=O)N([C@@H](C)C2CC2)C3)s1`, the GI50 in the test with T-47D breast is 10.7 µM; with CCRF-CEM leukemia, 1.18 µM; in the test with MDA-MB-435, 52.4 µM; in the test on SK-MEL-28 melanoma, 28.1 µM; with MDA-MB-231 breast it was 18.6 µM; with MCF7 breast, 23.7 µM. Further, the GI50 was 23.6 µM with MALME-3M melanoma, 14.2 µM in the test on RXF 393 renal, 25.4 µM in the test with NCI-H522 lung and 28 µM in the test with M14 melanoma. The TGI is 45 µM in the test on T-47D breast; over 100 µM in the test on CCRF-CEM leukemia; over 100 µM in the test on MDA-MB-435; over 100 µM in the test with SK-MEL-28 melanoma; 69.6 µM with MDA-MB-231 breast; over 100 µM with MCF7 breast. Also, the TGI in the test on MALME-3M melanoma is over 100 µM; in the test with RXF 393 renal it was 51.6 µM; with NCI-H522 lung it was over 100 µM; with M14 melanoma, over 100 µM.

As to `Cc1ccc(C(=O)N/N=C(\N=Nc2ccccc2)c2ccc(N(CCC#N)CCC#N)cc2C)cc1`, the TGI in the test with T-47D breast, in the test with CCRF-CEM leukemia, in the test with MDA-MB-435, in the test on SK-MEL-28 melanoma, in the test with MDA-MB-231 breast and with MCF7 breast was over 100 µM throughout. Also, the TGI with RXF 393 renal was over 100 µM; with NCI-H522 lung, 61.3 µM; with M14 melanoma, over 100 µM.

Values taken from PubChem BioAssay (NCI).
